Data set [1] relates to Notch1 mRNA. Put plainly: Notch1 mRNA by RT-qPCR, VTC-037 GSCs. It counts as cell-based, human. As to conditions: 50 μM, 24 h. How it is done: RNA was extracted using the PureLink^TM RNA mini extraction kit (Thermo Fisher) and on-column DNA digestion was completed using PureLink^TM DNase according to the manufacturer’s instructions. RNA was reverse transcribed to generate cDNA using the iScript^TM Reverse Transcription SuperMix for RT-qPCR kit (Bio-Rad Laboratories). Real-time PCR was performed using the SYBR select Master Mix for CFX (Thermo Fisher) in hard-shell 96-well PCR plates (Bio-Rad Laboratories) on a CFX Connect Real Time System (Bio-Rad Laboratories). Primer sequences used were: hNOTCH1_Fwd: 5’-CGCACAAGGTGTCTTCCAG-3’; hNOTCH1_Rev: 5’-CGGCGTGTGAGTTGATGA-3’; hHES1_Fwd: 5’-GGCTGGAGAGGCGGCTAA-3’; hHES1_Rev: 5’-[…]-3’; hHEY1_Fwd: 5’-[…]-3’; hHEY1_Rev: 5’-[…]-3’.

Data set [2] relates to Notch1. Put plainly: Notch1 protein expression, immunoblot, VTC-001 GSCs. To be noted: 50 μM, 24 h. It counts as cell-based, human. As for the experimental part:
Cells were lysed in RIPA buffer (0.1% sodium dodecyl sulphate, 50 mM Tris pH 7.4, 150 mM NaCl, 1 mM EDTA, 1% Triton X-100, 1% deoxycholic acid, 200 μM Na3VO4, and 1 mM NaF) supplemented with Halt^TM Protease and Phosphatase Inhibitor Cocktail (Thermo Fisher). Lysates were sonicated prior to centrifugation at 4 °C for 20 min at 10,000 x g. Protein concentration was quantified using the DC protein assay (Bio-Rad Laboratories) and a standard curve obtained with increasing concentrations of Bovine Serum Albumin (BSA; Fisher Scientific). Protein samples were normalized to 20 μg total protein per lane and resolved by SDS-PAGE electrophoresis. 4X Bolt LDS sample buffer supplemented with 400 mM DTT (final concentration 1X Bolt LDS with 100 mM DTT) was added to samples before heating at 70 °C for 10 min. SDS-PAGE was run using NuPAGE Bis-Tris 4%–12% gradient gels (Thermo Fisher) with MES or MOPS running buffer according to manufacturer’s instructions. Spectra™ Multicolor Protein Ladder (Thermo Fisher) or Precision Plus Protein™ Kaleidoscope™ Prestained Protein Standards (Bio-Rad Laboratories) were included as protein ladders on the same gels. […] Membranes were imaged on a ChemiDoc™ imaging system, and analyzed with Image Lab software (Bio-Rad Laboratories). […]

For data set [3], the system named is LN229/GSCs. As to the kind of experiment: MTS survival, LN229/GSCs. It counts as cell-based, human. As to conditions: 100 µM, 4 days. How it is done:
Cells were plated in 96-well plates (2000–5000 cells per well) and treated the following day with TMZ (10, 50, or 100 μM), antennapedia, JM2-scrambled, or JM2 (10, 50, or 100 μM). After 4 days, cell viability was monitored following addition of MTS reagent (Promega) according to manufacturer’s instructions. The absorbance at 490 nm was measured using a SpectraMax i3 or iD3 microplate reader (Molecular Devices). For the caspase 3/7 activity assay, cells were plated in 96-well plates (2000 cells per well) and treated with TMZ or peptides as described above. The activity of caspase 3/7 was measured after 48 h using the Caspase-Glo® 3/7 assay (Promega) following the manufacturer’s instructions. Fold change of caspase 3/7 activity was defined as the ratio of caspase 3/7 luminescence in treated cells compared to controls.

Data set [4] relates to VTC-034 GSCs. Put plainly: Cellular uptake by NeutrAvidin-HRP blotting, VTC-034 GSCs. It counts as in vitro ADME, human. The source says: JM2 peptide includes the Cx43 C-terminal amino acids 231–245 that encompass the tubulin binding sequence (VFFKGVKDRVKGRSD). A control peptide, JM2-scrambled, was generated by random re-assembly of the same residues (GSDVFKRKFVDRKVG). Both peptides contain a 16-amino acid antennapedia internalization sequence (RQPKIWFPNRRKPWKK) and are N-terminally biotinylated. Lyophilized peptides were obtained from Peptron, Inc. (South Korea) with purity > 95%, reconstituted in water or in PBS at a concentration of 10 mM, and aliquots were stored at −80 °C freezer. Reconstituted peptides were added to the cell culture medium at different concentrations for times indicated. […]
Cells were lysed in RIPA buffer (0.1% sodium dodecyl sulphate, 50 mM Tris pH 7.4, 150 mM NaCl, 1 mM EDTA, 1% Triton X-100, 1% deoxycholic acid, 200 μM Na3VO4, and 1 mM NaF) supplemented with Halt^TM Protease and Phosphatase Inhibitor Cocktail (Thermo Fisher). […] Protein concentration was quantified using the DC protein assay (Bio-Rad Laboratories) and a standard curve obtained with increasing concentrations of Bovine Serum Albumin (BSA; Fisher Scientific). […] Membranes were imaged on a ChemiDoc™ imaging system, and analyzed with Image Lab software (Bio-Rad Laboratories). […]

For the sequence VFFKGVKDRVKGRSD [JM2], in data set [1], the “Notch1 mRNA level” value is “not affected at the transcription level”. The Notch1 protein expression entry in data set [2] is recorded as “significantly decreased Notch1 expression at the protein level”. The “LN229/GSC survival (MTS)” value in data set [3] is recorded as “significantly decreased LN229/GSC survival after 4 days”. In data set [4] (50 μM, different times up to 48 h, NeutrAvidin-HRP blot), the “Cellular uptake over time” value was “apparent after 1 h, and sustained for 24 h before JM2 signal in GSCs decreased at 48 h”. The “Cellular uptake at increasing concentrations” value in data set [4] (different concentrations, 24 h, NeutrAvidin-HRP blot of biotin-tagged peptide) is reported as “Cellular uptake of JM2 at increasing concentrations was confirmed”.

The values are drawn from publication PMC12084297, “Cytoplasmic connexin43-microtubule interactions promote glioblastoma stem-like cell maintenance and tumorigenicity” (Cell Death & Disease, 2025).
